Assay results taken from ChEMBL document CHEMBL1150886, “Cytotoxic compounds from the roots of Juglans mandshurica” (J Nat Prod, 1998).
Values after ≈ are worked out from the molar mass of the structure shown.

Tests used:
[1] = system: HT-29; assay: Cytotoxicity against human HT-29 cells by MTT assay; type: functional, cell-based
[2] = system: A549; assay: Cytotoxicity against human A549 cells by MTT assay; type: functional, cell-based

SMILES	IC50 [1]	IC50 [2]
COc1cc(C(=O)OC[C@H]2O[C@@H](Oc3ccc(O)c4c3C(O)CCC4=O)[C@H](O)[C@@H](O)[C@@H]2O)cc(OC)c1O (some centres undefined)	> 50 µg/mL	> 50 µg/mL
COC(=O)c1cc(O[C@H]2O[C@@H](CO)[C@H](O)[C@@H](O)[C@@H]2O)c2c(O)cccc2c1O	8.06 µg/mL (≈ 20.3 µM)	7.79 µg/mL (≈ 19.7 µM)
COC1=CC(=O)c2c(O)cccc2C1=O	2.63 µg/mL (≈ 12.9 µM)	0.08 µg/mL (≈ 0.392 µM)
COc1cc2ccc1Oc1cc(ccc1O)CC(O[C@@H]1O[C@H](CO)[C@@H](O)[C@H](O)[C@H]1O)C(=O)CCCC2 (some centres undefined)	> 50 µg/mL	> 50 µg/mL
COC(=O)C(O)(c1cc2c(c3oc([C@]4(C)C[C@@H]4C)cc(=O)c13)C(=O)c1c(ccc([C@H]3C[C@](C)(N(C)C)[C@H](O[C@@H]4C[C@H](OC)[C@H](O)[C@@H](C)O4)[C@H](C)O3)c1O)C2=O)[C@H]1O[C@H](C)[C@@H](O)[C@@H](OC)[C@@H]1O (some centres undefined) [ALTROMYCIN B]	3.98 µg/mL (≈ 4.31 µM)	–
